Source: US8202879B2, “Quinazoline derivatives having tyrosine kinase inhibitory activity” (Shionogi & Co., Ltd., priority 2005, dated 2012)
Where two headings read alike, the source gives them in different places.

Tests used:
[1] = target: T1, EGFR (Homo sapiens, UniProt P00533); test: Enzyme inhibitory activity on EGFR (time resolution fluorescence, biotinylated poly-Glu-Tyr substrate); assay type: biochemical; settings: enzyme reaction at room temperature for 60 minutes
T1 construct: purchased Carna Biosciences, Inc; host or cells: insect cell expression system
T1 sequence (P00533 25-1210): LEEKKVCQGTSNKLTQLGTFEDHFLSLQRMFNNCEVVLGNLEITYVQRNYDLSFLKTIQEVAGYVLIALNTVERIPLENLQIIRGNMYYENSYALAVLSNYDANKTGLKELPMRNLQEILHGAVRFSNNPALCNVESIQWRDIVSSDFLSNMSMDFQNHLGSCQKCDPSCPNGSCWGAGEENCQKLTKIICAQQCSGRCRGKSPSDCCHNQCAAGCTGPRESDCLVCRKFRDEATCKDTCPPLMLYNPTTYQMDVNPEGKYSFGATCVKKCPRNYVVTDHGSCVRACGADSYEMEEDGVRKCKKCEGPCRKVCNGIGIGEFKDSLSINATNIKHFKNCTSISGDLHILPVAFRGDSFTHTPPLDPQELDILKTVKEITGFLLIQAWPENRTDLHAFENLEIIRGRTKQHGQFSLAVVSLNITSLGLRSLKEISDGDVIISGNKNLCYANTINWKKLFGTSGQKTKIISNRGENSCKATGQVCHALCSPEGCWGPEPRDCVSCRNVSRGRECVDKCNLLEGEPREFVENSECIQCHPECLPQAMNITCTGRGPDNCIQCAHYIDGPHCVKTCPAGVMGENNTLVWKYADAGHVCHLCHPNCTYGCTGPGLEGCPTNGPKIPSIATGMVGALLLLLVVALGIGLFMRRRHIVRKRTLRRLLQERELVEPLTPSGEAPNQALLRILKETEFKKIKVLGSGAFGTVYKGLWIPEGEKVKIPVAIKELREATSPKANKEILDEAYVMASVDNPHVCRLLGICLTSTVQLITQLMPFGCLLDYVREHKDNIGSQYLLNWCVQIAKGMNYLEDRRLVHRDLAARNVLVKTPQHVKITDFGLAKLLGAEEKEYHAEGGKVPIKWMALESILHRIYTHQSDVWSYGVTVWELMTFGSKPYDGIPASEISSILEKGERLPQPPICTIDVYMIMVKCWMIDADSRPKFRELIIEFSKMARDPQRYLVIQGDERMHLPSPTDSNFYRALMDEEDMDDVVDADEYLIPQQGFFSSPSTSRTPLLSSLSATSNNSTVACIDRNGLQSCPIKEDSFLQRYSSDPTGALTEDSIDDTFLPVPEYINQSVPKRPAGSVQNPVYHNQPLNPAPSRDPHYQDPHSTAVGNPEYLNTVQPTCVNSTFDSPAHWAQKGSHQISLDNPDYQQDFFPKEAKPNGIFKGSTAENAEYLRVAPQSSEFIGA
Procedure, shortened: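 Insect-cell-expressed EGFR phosphorylated biotinylated poly-Glu-Tyr (4:1) for 60 min at room temperature in TBS with MgCl2, MnCl2, Na3VO4 and BSA. Enzyme 250 ng/ml, substrate 3.125 μg/ml and ATP 125 μM as working solutions. EDTA stop; Eu anti-phosphotyrosine/streptavidin-XL time-resolved fluorescence read; 10-point 4-fold dilutions.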

[2] = tested on: BT-474; test: In vitro cell proliferation inhibition, WST assay; assay type: cell-based, human; settings: BT-474 cells, cultured for 3 days, read-out: BT-474 (nM) proliferation inhibitory activity (IC50 value)
Description: Test of In Vitro Cell Proliferation Inhibition of Test Compound
As a human-derived cancer cell strain, BT-474 was used. Cells were all cultured in a 37° C., 5% CO2 incubator in a medium in which 10% bovine fetal serum (ICN) and 50 units ml penicillin/60 μg/ml streptomycin solution (GIBCO) were added to Dulbecco's Modified Essential Medium (DMEM, Nacalai Tesque, Inc).

[3] = target: T2, HER2 (Homo sapiens, UniProt P04626); test: Enzyme inhibitory activity on HER2 (time resolution fluorescence, biotinylated poly-Glu-Tyr substrate); assay type: biochemical; settings: enzyme reaction at room temperature for 60 minutes
T2 construct: purchased Carna Biosciences, Inc; host or cells: insect cell expression system
T2 sequence (P04626 23-1255): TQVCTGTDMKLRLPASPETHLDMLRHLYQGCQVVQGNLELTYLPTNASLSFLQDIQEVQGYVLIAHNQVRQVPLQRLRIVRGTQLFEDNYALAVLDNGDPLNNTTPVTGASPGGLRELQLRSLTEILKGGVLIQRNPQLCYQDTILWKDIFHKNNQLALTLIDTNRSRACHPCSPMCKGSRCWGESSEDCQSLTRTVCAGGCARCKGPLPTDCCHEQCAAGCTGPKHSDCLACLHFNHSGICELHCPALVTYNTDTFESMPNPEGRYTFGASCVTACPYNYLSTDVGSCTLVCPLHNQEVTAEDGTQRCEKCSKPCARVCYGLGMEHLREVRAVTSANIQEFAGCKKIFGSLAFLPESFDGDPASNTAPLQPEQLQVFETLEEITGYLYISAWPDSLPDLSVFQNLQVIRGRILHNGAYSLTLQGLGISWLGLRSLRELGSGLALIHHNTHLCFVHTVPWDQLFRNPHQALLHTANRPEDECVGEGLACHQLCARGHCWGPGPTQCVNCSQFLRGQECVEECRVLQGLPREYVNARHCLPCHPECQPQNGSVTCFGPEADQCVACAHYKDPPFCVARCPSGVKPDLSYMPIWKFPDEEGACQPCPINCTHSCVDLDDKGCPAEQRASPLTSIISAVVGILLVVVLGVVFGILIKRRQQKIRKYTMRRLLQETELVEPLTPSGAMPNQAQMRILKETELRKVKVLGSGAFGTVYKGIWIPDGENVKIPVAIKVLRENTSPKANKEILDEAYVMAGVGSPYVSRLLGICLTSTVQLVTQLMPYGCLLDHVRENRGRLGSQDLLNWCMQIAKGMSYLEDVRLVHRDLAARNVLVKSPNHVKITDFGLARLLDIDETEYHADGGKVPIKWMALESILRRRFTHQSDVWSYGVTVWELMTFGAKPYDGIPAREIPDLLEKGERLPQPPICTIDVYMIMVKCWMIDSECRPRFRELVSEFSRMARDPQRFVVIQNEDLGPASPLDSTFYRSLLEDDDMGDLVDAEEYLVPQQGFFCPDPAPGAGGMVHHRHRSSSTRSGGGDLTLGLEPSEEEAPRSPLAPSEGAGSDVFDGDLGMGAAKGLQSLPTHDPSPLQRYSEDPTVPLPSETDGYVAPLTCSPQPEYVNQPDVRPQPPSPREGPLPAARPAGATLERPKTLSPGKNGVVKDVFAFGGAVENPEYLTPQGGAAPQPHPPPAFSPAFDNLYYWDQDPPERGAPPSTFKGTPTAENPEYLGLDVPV
Procedure, shortened: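 Insect-cell-expressed HER2 (1000 ng/ml working stock) with biotinylated poly-Glu-Tyr (4:1; 3.125 μg/ml stock) and ATP (290 μM solution) in TBS with MgCl2, MnCl2, Na3VO4 and BSA, 60 min at room temperature. 10-point 4-fold dilutions from a 1 mM top solution. Phosphotyrosine detected by TR-FRET with Eu-antibody and streptavidin-XL.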

IC50 [1] [nM] | IC50 ([2]; Homo sapiens, BT-474, 72 h) [nM] | IC50 [3] [nM] | IC50 [2] [nM] | SMILES
40 | 14 | 38 |  | COCC#C/C(=N\OCCN1CCCC1)c1ccc2ncnc(Nc3ccc(OCc4cccc(F)c4)c(Cl)c3)c2c1 [VIII-124]
37 |  | 35 | 61 | CCCC#CC(=NOCCNC)c1ccc2ncnc(Nc3ccc(OCc4cccc(F)c4)c(Cl)c3)c2c1 [VIII-127]
15 | 37 | 17 |  | CC#C/C(=N\OCCN1CCCC(O)C1)c1ccc2ncnc(Nc3ccc(OCc4ccccn4)c(Cl)c3)c2c1 (stereo not drawn) [VIII-128]
7.1 | 12 | 6.3 |  | CC#C/C(=N\OC[C@@H](C)N)c1ccc2ncnc(Nc3ccc(OCc4ccccn4)c(Cl)c3)c2c1 [VIII-129]
8.1 | 50 | 5.2 |  | CC#C/C(=N\OCCNC(C)COC)c1ccc2ncnc(Nc3ccc(OCc4ccccn4)c(Cl)c3)c2c1 (stereo not drawn) [VIII-130]
5.8 | 14 | 4.4 |  | CC#C/C(=N\OC[C@@H](COC)NC)c1ccc2ncnc(Nc3ccc(OCc4ccccn4)c(Cl)c3)c2c1 [VIII-131]
14 | 18 | 14 |  | CC#C/C(=N\OCCNCCS(C)(=O)=O)c1ccc2ncnc(Nc3ccc(OCc4ccccn4)c(Cl)c3)c2c1 [VIII-132]
8.4 | 43 | 7.1 |  | CC#C/C(=N\OCCNCCCN1CCCC1=O)c1ccc2ncnc(Nc3ccc(OCc4ccccn4)c(Cl)c3)c2c1 [VIII-133]
7.1 | 14 | 7.4 |  | CC#C/C(=N\OCCNCCNC(C)=O)c1ccc2ncnc(Nc3ccc(OCc4ccccn4)c(Cl)c3)c2c1 [VIII-134]
7.6 | 28 | 8.1 |  | CC#C/C(=N\OCCNCCOC(N)=O)c1ccc2ncnc(Nc3ccc(OCc4ccccn4)c(Cl)c3)c2c1 [VIII-135]
21 | 53 | 21 |  | CC#C/C(=N\OCCNC1CC1)c1ccc2ncnc(Nc3ccc(OCc4ccccn4)c(Cl)c3)c2c1 [VIII-136]
13 | 78 | 14 |  | CC#C/C(=N\OCCNC[C@@H]1CCCO1)c1ccc2ncnc(Nc3ccc(OCc4ccccn4)c(Cl)c3)c2c1 [VIII-137]
5 | 32 | 3.8 |  | CC#C/C(=N\OCCNC[C@@H](C)CO)c1ccc2ncnc(Nc3ccc(OCc4ccccn4)c(Cl)c3)c2c1 [VIII-139]
5.5 | 30 | 4.3 |  | CC#C/C(=N\OCCNC[C@H](C)CO)c1ccc2ncnc(Nc3ccc(OCc4ccccn4)c(Cl)c3)c2c1 [VIII-140]
10 | 46 | 7.9 |  | CC#C/C(=N\OCCNC1CCOCC1)c1ccc2ncnc(Nc3ccc(OCc4ccccn4)c(Cl)c3)c2c1 [VIII-141]
5.5 | 31 | 4.4 |  | CC#C/C(=N\OCCNC1CCN(S(C)(=O)=O)CC1)c1ccc2ncnc(Nc3ccc(OCc4ccccn4)c(Cl)c3)c2c1 [VIII-142]
3.5 | 24 | 3.6 |  | CC#C/C(=N\OCCNCCO)c1ccc2ncnc(Nc3ccc(OCc4ccccn4)c(Cl)c3)c2c1 [VIII-143]
9.4 | 21 | 8.9 |  | CC#C/C(=N\OCCN(C)CCO)c1ccc2ncnc(Nc3ccc(OCc4ccccn4)c(Cl)c3)c2c1 [VIII-145]
12 | 45 | 10 |  | CC#C/C(=N\OCCN(C)CCOC)c1ccc2ncnc(Nc3ccc(OCc4ccccn4)c(Cl)c3)c2c1 [VIII-146]
13 | 25 | 13 |  | CC#C/C(=N\OCCCNC)c1ccc2ncnc(Nc3ccc(OCc4ccccn4)c(Cl)c3)c2c1 [VIII-147]
6.1 | 26 | 5.8 |  | CC#C/C(=N\OCCN1CCCC1)c1ccc2ncnc(Nc3ccc(OCc4ccccn4)c(Cl)c3)c2c1 [VIII-148]
13 | 28 | 14 |  | CC#C/C(=N\OCCN1CC[C@@H](NC(C)=O)C1)c1ccc2ncnc(Nc3ccc(OCc4ccccn4)c(Cl)c3)c2c1 [VIII-149]
12 | 30 | 11 |  | CC#C/C(=N\OCCN1CCC[C@@H]1CO)c1ccc2ncnc(Nc3ccc(OCc4ccccn4)c(Cl)c3)c2c1 [VIII-150]
20 | 47 | 19 |  | CC#C/C(=N\OCCN1CC[C@@H](OC(N)=O)C1)c1ccc2ncnc(Nc3ccc(OCc4ccccn4)c(Cl)c3)c2c1 [VIII-151]

IC50 [1] [nM] | IC50 ([2]; Homo sapiens, BT-474, 72 h) [nM] | IC50 [3] [nM] | IC50 [2] [nM] | SMILES
2.4 | 22 | 4.3 |  | CC#C/C(=N\OC[C@@H]1C[C@H](O)CN1)c1ccc2ncnc(Nc3ccc(OCc4ccccn4)c(Cl)c3)c2c1 [VIII-152]
10 | 21 | 11 |  | CC#C/C(=N\OC[C@@H]1CCCN1)c1ccc2ncnc(Nc3ccc(OCc4ccccn4)c(Cl)c3)c2c1 [VIII-153]
9.5 | 31 | 9 |  | CC#C/C(=N\OC[C@@H]1CCCN1C)c1ccc2ncnc(Nc3ccc(OCc4ccccn4)c(Cl)c3)c2c1 [VIII-154]
10 | 28 | 8 |  | CC#C/C(=N\O[C@@H]1CN[C@H](CO)C1)c1ccc2ncnc(Nc3ccc(OCc4ccccn4)c(Cl)c3)c2c1 [VIII-155]
7 | 24 | 6.4 |  | CC#C/C(=N\OC[C@@H]1C[C@@H](O)CN1)c1ccc2ncnc(Nc3ccc(OCc4ccccn4)c(Cl)c3)c2c1 [VIII-156]
4.1 | 25 | 4 |  | CC#C/C(=N\OC[C@H]1CCCN1)c1ccc2ncnc(Nc3ccc(OCc4ccccn4)c(Cl)c3)c2c1 [VIII-157]
3.8 | 27 | 3.8 |  | CC#C/C(=N\OC[C@H]1CCCN1C)c1ccc2ncnc(Nc3ccc(OCc4ccccn4)c(Cl)c3)c2c1 [VIII-158]
16 | 15 | 19 |  | CC#C/C(=N\OC[C@H]1CCCN1CCO)c1ccc2ncnc(Nc3ccc(OCc4ccccn4)c(Cl)c3)c2c1 [VIII-159]
17 | 47 | 18 |  | CC#C/C(=N\OC[C@@H]1CCCN1CCO)c1ccc2ncnc(Nc3ccc(OCc4ccccn4)c(Cl)c3)c2c1 [VIII-160]
14 | 49 | 15 |  | CC#C/C(=N\O[C@H]1CN[C@H](CO)C1)c1ccc2ncnc(Nc3ccc(OCc4ccccn4)c(Cl)c3)c2c1 [VIII-161]
51 | 42 | 62 |  | CC#C/C(=N\OCCN1CCS(=O)(=O)CC1)c1ccc2ncnc(Nc3ccc(OCc4ccccn4)c(Cl)c3)c2c1 [VIII-162]
23 | 38 | 27 |  | CC#C/C(=N\OCCN1CCOCC1)c1ccc2ncnc(Nc3ccc(OCc4ccccn4)c(Cl)c3)c2c1 [VIII-163]
7.3 | 31 | 7.6 |  | CC#C/C(=N\OCCN1CCN(C)CC1)c1ccc2ncnc(Nc3ccc(OCc4ccccn4)c(Cl)c3)c2c1 [VIII-164]
11 | 23 | 11 |  | CC#C/C(=N\OCCN1CCC(O)CC1)c1ccc2ncnc(Nc3ccc(OCc4ccccn4)c(Cl)c3)c2c1 [VIII-165]
4.8 | 21 | 4.2 |  | CC#C/C(=N\OC[C@H]1COCCN1)c1ccc2ncnc(Nc3ccc(OCc4ccccn4)c(Cl)c3)c2c1 [VIII-167]
8 | 44 | 9 |  | CC#C/C(=N\OC[C@@H]1CNCCO1)c1ccc2ncnc(Nc3ccc(OCc4ccccn4)c(Cl)c3)c2c1 [VIII-168]
13 | 35 | 15 |  | CC#C/C(=N\OC[C@@H]1COCCN1)c1ccc2ncnc(Nc3ccc(OCc4ccccn4)c(Cl)c3)c2c1 [VIII-169]
5 | 19 | 5.6 |  | CC#CC(=NOCC1CNCCN1)c1ccc2ncnc(Nc3ccc(OCc4ccccn4)c(Cl)c3)c2c1 (stereo not drawn) [VIII-170]
9.9 | 52 | 11.7 |  | CC#C/C(=N\OC[C@H]1CNCC(=O)N1)c1ccc2ncnc(Nc3ccc(OCc4ccccn4)c(Cl)c3)c2c1 [VIII-171]
14 | 70 | 16 |  | CC#CC(=NOCC1CN(C)CCN1C)c1ccc2ncnc(Nc3ccc(OCc4ccccn4)c(Cl)c3)c2c1 (stereo not drawn) [VIII-172]
4.8 | 40 | 3.9 |  | CC#C/C(=N\OC[C@H]1CNCCO1)c1ccc2ncnc(Nc3ccc(OCc4ccccn4)c(Cl)c3)c2c1 [VIII-173]
25 | 14 | 28 |  | CC#C/C(=N\OC[C@H]1CN(CCO)CCN1)c1ccc2ncnc(Nc3ccc(OCc4ccccn4)c(Cl)c3)c2c1 [VIII-174]
23 | 26 | 26 |  | CC#C/C(=N\OC[C@H]1CN(C)CCN1)c1ccc2ncnc(Nc3ccc(OCc4ccccn4)c(Cl)c3)c2c1 [VIII-176]
